The source of these data is patent publication US12377049B2, “Fulvestrant pharmaceutical composition, preparation method therefor, and application thereof” (SHANGHAI BOCIMED PHARMACEUTICAL CO., LTD., priority 2019, dated 2025).

For data set [1] the following is noted: background statement; cited from earlier work.
A short description of data set [2]: Stability test on the fulvestrant suspensions of Examples 1-3: related substances (EP10.0 method). In kind it is physicochemical. Conditions: starting material. The method, then:
The fulvestrant suspensions prepared in Examples 1 and 2 were stored in a refrigerator at 4° C. for 14 days or 10 days, and tested for related substances.
The fulvestrant suspension prepared in Example 3 was placed at −20° C., 4° C., 25° C., 40° C. or 60° C., and tested for related substances, the morphology, particle size distribution and crystalline form changes of the fulvestrant solid particles. The test for the related substances was performed according to the EP10.0 method.

The conditions of data set [3]: background statement; cited from earlier work. This is another data set of the same source.

Structures are written as SMILES.

As to `C[C@]12CC[C@@H]3c4ccc(O)cc4C[C@@H](CCCCCCCCC[S+]([O-])CCCC(F)(F)C(F)(F)F)[C@H]3[C@@H]1CC[C@@H]2O` (some centres unmarked) [Fulvestrant, 7-(9-(4,4,5,5,5-pentafluoropentylsulfinyl)nonyl)estra-1,3,5(10)-triene-3,17-diol], the water solubility entry in data set [1] is listed as “very low”. In data set [2], the “Main peak, peak area” value turned out to be 99.84%; the “RRT 0.51, peak area” value is listed as 0.01%; the “RRT 0.88, peak area” value came to 0.05%; the “RRT 1.19, peak area” value came out at 0.04%. In data set [2], the “RRT 2.92, peak area” value was 0.03% and the “Total impurities, peak area” value came to 0.05%. The oral bioavailability result in data set [3] is “low”.
